In patent US6906198B1, “Antipicornaviral compounds, their preparation and use” (Agouron Pharmaceuticals, Inc., priority 1998, dated 2005):
Read-outs that look alike come from different tables or passages of the source.

What was measured:
[1] = system: Coxsackievirus type A-21 (CAV-21); experiment: Anticoxsackieviral cell culture assay (XTT), CAV-21; format: cell-based
Description: (§1) Anticoxsackieviral Cell Culture Assay
(§2) Coxsackievirus types A-21 (CAV-21) and B3 (CVB-3) were purchased from American Type Culture Collection (ATCC, Rockville, Md.). Virus stocks were propagated and antiviral assays were performed in H1-HeLa cells (ATCC). Cells were grown in minimal essential medium with 10% fetal bovine serum (Life Technologies, Gaithersburg, Md.).
(§3) The ability of compounds to protect cells against either CAV-21 or CVB-3 infection was measured by the XTT dye reduction method. This method is described in Weislow et al., J. Natl. Cancer Inst. 1989, vol. 81, 577-586. H1-HeLa cells were infected with CAV-21 or CVB-3 at a multiplicity of infection (m.o.i.) of 0.025 or 0.075, respectively, or mock-infected with medium only. H1-HeLa cells were plated at 4×10^4 cells per well in a 96-well plate and incubated with appropriate concentrations of the test compound. One day (CVB-3) or two days (CAV-21) later, XTT/PMS was added to test plates and the amount of formazan produced was quantified spectrophotometrically at 450/650 nm. The EC50 was calculated as the concentration of compound that increased the formazan production in compound-treated, virus-infected cells to 50% of that produced by compound-free, uninfected cells. […] The therapeutic index (TI) was calculated by dividing the CC50 by the EC50. […]

[2] = system: Echovirus type 11 (EV 11); experiment: Anti-echoviral cell culture assay (XTT), EV 11; format: cell-based; settings: Enterovirus B, MRC5
Description: (§4) Anti-Echoviral and -Enteroviral Cell Culture Assays
(§5) Echovirus type 11 (EV 11) and enterovirus type 70 (EV 70) were purchased from ATCC (Rockville, Md.). Virus stocks were propagated and antiviral assays were performed in MRC-5 cells (ATCC). Cells were grown in minimal essential medium with 10% fetal bovine serum (Life Technologies, Gaithersburg, Md.).
(§6) The ability of compounds to protect cells against either EV 11 or EV 70 infection was measured by the XTT dye reduction method (Weislow et al., J. Natl. Cancer Inst. 1989, vol. 81, 577-586). MRC-5 cells were infected with EV 11 or EV 70 at an m.o.i. of 0.003 or 0.004, respectively, or mock-infected with medium only. Infected or uninfected cells were added at 1×10^4 cells per well and incubated with appropriate concentrations of compound. Four days later, XTT/PMS was added to test plates, and the amount of formazan produced was quantified spectrophotometrically at 450/650 nm. The EC50 was calculated as the concentration of compound that increased the formazan production in compound-treated, virus-infected cells to 50% of that produced by compound-free, uninfected cells. […] The therapeutic index (TI) was calculated by dividing the CC50 by the EC50. […]

HRV serotype 1A = experiment: Antirhinoviral H1-HeLa cell culture assay (XTT), HRV-1A; format: cell-based, human rhinovirus; settings: Human rhinovirus sp., H1-HeLa cells
Description: (§7) Antirhinoviral H1-HeLa Cell Culture Assay
(§8) In this cell protection assay, the ability of compounds to protect cells against HRV infection was measured by the XTT dye reduction method, which is described in Weislow et al., J. Natl. Cancer Inst. 1989, vol. 81, 577-586.
(§9) H1-HeLa cells were infected with HRV-14 at a multiplicity of infection (m.o.i.) of 0.13 (virus particles/cell) or mock-infected with medium only. Infected or mock-infected cells were resuspended at 8×10^5 cells per mL, and incubated with appropriate concentrations of the compounds to be tested. Two days later, XTT/PMS was added to test plates and the amount of formazan produced was quantified spectrophotometrically at 450/650 nm. The EC50 value was calculated as the concentration of compound that increased the percentage of formazan production in compound-treated, virus-infected cells to 50% of that produced by compound-free, mock-infected cells. The 50% cytotoxic dose (CC50) was calculated as the concentration of compound that decreased the percentage of formazan produced in compound-treated, mock-infected cells to 50% of that produced by compound-free, mock-infected cells. The therapeutic index (TI) was calculated by dividing the CC50 value by the EC50 value.
(§10) All strains of human rhinovirus (HRV) for use in this assay were purchased from American Type Culture Collection (ATCC), except for HRV serotype-14 (produced from the infectious cDNA clone constructed by Dr. Robert Rueckert, Institute for Molecular Virology, University of Wisconsin, Madison, Wis.). HRV stocks were propagated and viral assays were performed in H1-HeLa cells (ATCC). Cells were grown in minimal essential medium with 10% fetal bovine serum, available from Life Technologies (Gaithersburg, Md.).
(§11) The compounds were tested against control compounds WIN 51711, WIN 52084, and WIN 54954 (obtained from Sterling-Winthrop Pharmaceuticals), Pirodavir (obtained from Janssen Pharmaceuticals), and Pleconaril (prepared according to the method described in Diana et al., J. Med. Chem 1995, vol. 38, 1355). […]

HRV serotype 89 = experiment: Antirhinoviral H1-HeLa cell culture assay (XTT), HRV-89; format: cell-based; settings: Human rhinovirus sp., H1-HeLa cells
Description: as §7, §8
as §9, with “value. […]” for “value.”

HRV serotype 10 = experiment: Antirhinoviral H1-HeLa cell culture assay (XTT), HRV-10; format: cell-based, human rhinovirus; settings: Human rhinovirus sp., H1-HeLa cells
Description: as §7, §8, §9, §10, §11

HRV serotype 30 = experiment: Antirhinoviral H1-HeLa cell culture assay (XTT), HRV-30; format: cell-based; settings: Human rhinovirus sp., H1-HeLa cells
Description: as §7, §8
as §9, with “value. […]” for “value.”

HRV serotype 87 = experiment: Antirhinoviral H1-HeLa cell culture assay (XTT), HRV-87; format: cell-based; settings: Human rhinovirus sp., H1-HeLa cells
Description: as §7, §8
as §9, with “value. […]” for “value.”

HRV serotype 3 = experiment: Antirhinoviral H1-HeLa cell culture assay (XTT), HRV-3; format: cell-based; settings: Human rhinovirus sp., H1-HeLa cells
Description: as §7, §8
as §9, with “value. […]” for “value.”

HRV serotype 17 = experiment: Antirhinoviral H1-HeLa cell culture assay (XTT), HRV-17; format: cell-based; settings: Human rhinovirus sp., H1-HeLa cells
Description: as §7, §8
as §9, with “value. […]” for “value.”

HRV serotype 12 = experiment: Antirhinoviral H1-HeLa cell culture assay (XTT), HRV-12; format: cell-based; settings: Human rhinovirus sp., H1-HeLa cells
Description: as §7, §8
as §9, with “value. […]” for “value.”

HRV serotype 39 = experiment: Antirhinoviral H1-HeLa cell culture assay (XTT), HRV-39; format: cell-based; settings: Human rhinovirus sp., H1-HeLa cells
Description: as §7, §8
as §9, with “value. […]” for “value.”

HRV serotype 38 = experiment: Antirhinoviral H1-HeLa cell culture assay (XTT), HRV-38; format: cell-based; settings: Human rhinovirus sp., H1-HeLa cells
Description: as §7, §8
as §9, with “value. […]” for “value.”

HRV serotype 25 = experiment: Antirhinoviral H1-HeLa cell culture assay (XTT), HRV-25; format: cell-based; settings: Human rhinovirus sp., H1-HeLa cells
Description: as §7, §8
as §9, with “value. […]” for “value.”

[3] = Cytotoxicity in uninfected H1-HeLa cells (anticoxsackieviral assay, XTT); format: cell-based; settings: human; 50% cytotoxic dose, uninfected H1-HeLa cells (Table 4)
Description: as §2
(§12) The ability of compounds to protect cells against either CAV-21 or CVB-3 infection was measured by the XTT dye reduction method. This method is described in Weislow et al., J. Natl. Cancer Inst. 1989, vol. 81, 577-586. H1-HeLa cells were infected with CAV-21 or CVB-3 at a multiplicity of infection (m.o.i.) of 0.025 or 0.075, respectively, or mock-infected with medium only. H1-HeLa cells were plated at 4×10^4 cells per well in a 96-well plate and incubated with appropriate concentrations of the test compound. One day (CVB-3) or two days (CAV-21) later, XTT/PMS was added to test plates and the amount of formazan produced was quantified spectrophotometrically at 450/650 nm. The EC50 was calculated as the concentration of compound that increased the formazan production in compound-treated, virus-infected cells to 50% of that produced by compound-free, uninfected cells. The 50% cytotoxic dose (CC50) was calculated as the concentration of compound that decreased formazan production in compound-treated, uninfected cells to 50% of that produced in compound-free, uninfected cells. The therapeutic index (TI) was calculated by dividing the CC50 by the EC50.

[4] = Cytotoxicity in uninfected MRC-5 cells (anti-echoviral/-enteroviral assay, XTT); format: cell-based; settings: human, 50% cytotoxic dose
Description: as §5
The ability of compounds to protect cells against either EV 11 or EV 70 infection was measured by the XTT dye reduction method (Weislow et al., J. Natl. Cancer Inst. 1989, vol. 81, 577-586). MRC-5 cells were infected with EV 11 or EV 70 at an m.o.i. of 0.003 or 0.004, respectively, or mock-infected with medium only. Infected or uninfected cells were added at 1×10^4 cells per well and incubated with appropriate concentrations of compound. Four days later, XTT/PMS was added to test plates, and the amount of formazan produced was quantified spectrophotometrically at 450/650 nm. The EC50 was calculated as the concentration of compound that increased the formazan production in compound-treated, virus-infected cells to 50% of that produced by compound-free, uninfected cells. The 50% cytotoxic dose (CC50) was calculated as the concentration of compound that decreased formazan production in compound-treated, uninfected cells to 50% of that produced in compound-free, uninfected cells. The therapeutic index (TI) was calculated by dividing the CC50 by the EC50.

HRV serotype 13 = experiment: Antirhinoviral H1-HeLa cell culture assay (XTT), HRV-13; format: cell-based; settings: Human rhinovirus sp., H1-HeLa cells
Description: as §7, §8
as §9, with “value. […]” for “value.”

HRV-14 = experiment: Antirhinoviral H1-HeLa cell culture assay (XTT), HRV-14; format: cell-based, human rhinovirus
Description: as §7, §8, §9, §10
The compounds were tested against control compounds WIN 51711, WIN 52084, and WIN 54954 (obtained from Sterling-Winthrop Pharmaceuticals), Pirodavir (obtained from Janssen Pharmaceuticals), and Pleconaril (prepared according to the method described in Diana et al., J. Med. Chem 1995, vol. 38, 1355). Antiviral data obtained for the test compounds are shown in Tables 1 and 3, where all data are for HRV serotype-14 unless otherwise noted in parentheses.

HRV serotype 2 = experiment: Antirhinoviral H1-HeLa cell culture assay (XTT), HRV-2; format: cell-based; settings: Human rhinovirus sp., H1-HeLa cells
Description: as §7, §8
as §9, with “value. […]” for “value.”

HRV serotype 9 = experiment: Antirhinoviral H1-HeLa cell culture assay (XTT), HRV-9; format: cell-based; settings: Human rhinovirus sp., H1-HeLa cells
Description: as §7, §8
as §9, with “value. […]” for “value.”

[5] = Cytotoxicity in mock-infected H1-HeLa cells (antirhinoviral assay, XTT); format: cell-based; settings: human, 50% cytotoxic dose
Description: as §9, §10

HRV serotype 16 = experiment: Antirhinoviral H1-HeLa cell culture assay (XTT), HRV-16; format: cell-based; settings: Human rhinovirus sp., H1-HeLa cells
Description: as §7, §8
as §9, with “value. […]” for “value.”

[6] = system: Coxsackievirus type B3 (CVB-3); experiment: Anticoxsackieviral cell culture assay (XTT), CVB-3; format: cell-based
Description: as §1, §2, §3

[7] = system: enterovirus type 70 (EV 70); experiment: Anti-enteroviral cell culture assay (XTT), EV 70; format: cell-based; settings: Enterovirus D, MRC5
Description: as §4, §5, §6

H1-HeLa cells [8] = experiment: Cytotoxicity in uninfected H1-HeLa cells (anticoxsackieviral assay, XTT); format: cell-based; settings: 50% cytotoxic dose, uninfected H1-HeLa cells (Table 4)
Description: as §2, §12

H1-HeLa cells [9] = experiment: Cytotoxicity in mock-infected H1-HeLa cells (antirhinoviral assay, XTT); format: cell-based; settings: 50% cytotoxic dose
Description: as §9, §10

CCOC(=O)/C=C/[C@H](C[C@@H]1CCNC1=O)NC(=O)[C@H](Cc1ccc(F)cc1)NC(=O)[C@@H](NC(=O)c1cc(C)on1)C(C)C [(A-5), Ethyl-3-{(5′-Methylisoxazole-3′-carbonyl)-L-Val-L-(4-F-Phe)-L-((S)-Pyrrol-Ala)}-E-Propenoate]
EC50 ([1]; Coxsackievirus, H1-HeLa): 0.23 µM
EC50 [2]: 0.08 µM
EC50 (HRV serotype 1A): 0.03 µM
EC50 (HRV serotype 89): 0.02 µM
EC50 (HRV serotype 10): 0.05 µM
EC50 (HRV serotype 30): 0.06 µM
EC50 (HRV serotype 87): 0.21 µM
EC50 (HRV serotype 3): 0.05 µM
EC50 (HRV serotype 17): 0.02 µM
EC50 (HRV serotype 12): 0.06 µM
EC50 (HRV serotype 39): 0.02 µM
EC50 (HRV serotype 38): 0.13 µM
EC50 (HRV serotype 25): 0.18 µM
CC50 [3]: > 10 µM
melting point: 219 to 220 °C
CC50 at 4 days [4]: > 10 µM
EC50 (HRV serotype 13): 0.02 µM
EC50 (HRV-14; Rhinovirus B, HRV14, HRV serotype-14, H1-HeLa cells (Table 1), read-out: Cell Protection EC50): 0.005 µM
EC50 (HRV-14; Rhinovirus B, HRV14, HRV serotype-14, H1-HeLa cells (Table 3), read-out: EC50): 0.005 µM
EC50 (HRV serotype 2): 0.01 µM
EC50 (HRV serotype 9): 0.04 µM
CC50 at 2 days [5]: > 10 µM
EC50 (HRV serotype 16): 0.02 µM
EC50 ([6]; Coxsackievirus, H1-HeLa): 1 µM
EC50 [7]: 0.04 µM

Cc1cc(CCCCCOc2c(Cl)cc(C3=NCCO3)cc2Cl)on1 [WIN 54954, reference compound]
EC50 ([1]; CAV-21, H1-HeLa cells, read-out: EC50): > 100 µM
CC50 (H1-HeLa cells [8]): > 100 µM
EC50 (HRV-14; HRV serotype-14, H1-HeLa cells (Table 3), read-out: EC50): 2.13 µM
CC50 (H1-HeLa cells [9]): > 63 µM
EC50 ([6]; CVB-3, H1-HeLa cells, read-out: EC50): > 100 µM
